The values below come from patent US20020032187A1, “Method for stimulating bone formation” (SmithKline Beecham Corporation, priority 1996, published 2002).

As a reminder, the EC50 is the concentration at which the effect is half-maximal.

Read-outs that look alike come from different tables or passages of the source. No end group written: not given here.

For experiment [1], the system named is ROS 17/2.8 osteoblasts. The conditions noted are these: for increase over the basal level of osteocalcin: 48 hr incubation, Vitamin D3 at 10 nM, internal controls. The procedure: Cell culture: ROS 17/2.8 osteoblasts were routinely cultured in Ham's F-12 medium containing 5% FBS, 25 rmM HEPES (pH 7.4), 1.1 mM CaCl2, penicillin (10 U/ml) and streptomycin (10 ug/ml). The cells were subcultured twice a week using 0.04% trypsin containing 5 mM EDTA to detach the cells.
For the assay, 30,000 cells were plated per well in 24-well multidishes in 0.5 ml of HAM's F-12 medium containing 1% FBS and allowed to adhere for 3-4 hr at 37° C. in a humidified incubator with 5% CO2. Increasing concentrations of test compounds ([…]) were then added to the wells (duplicate cultures per concentration tested) and the incubation continued for an additional 48 hr. At the end of the incubation, cultures supernatants were removed and assayed for osteocalcin levels using a rat RIA as per the manufacturer's instructions. The lower limit of detection in this assay was 0.3 ng/ml. In every experiment, Vitamin D3 (10 nM) and the peptide cyclo[Arg-Gly-Asp-D-Phe-Val] were tested as an internal controls. […] Activity for each compound was expressed as the EC50 from the dose-response curve.

Experiment [2] deals with MC3T3-E1 osteoblasts. Kind of experiment: Mineralization of MC3T3 osteoblasts. Type of experiment: cell-based, murine. The conditions noted are these: 25 uM. The procedure:
Mineralization of MC3T3 osteoblasts
To characterize the temporal sequence of osteoblast differentiation, 30,000 cells were plated/well in 24-well multidishes and grown for periods ranging from 3-26 days in a-MEM medium (GIBCO) containing 10% fetal bovine serum (V/V), penicillin (100 U/ml) and streptomycin (100 ug/ml), with or without supplementation with 5 mM β-glycerophosphate and 100 uM ascorbic acid in the presence or absence of RGD compounds.
Mineralization of cells was assessed by calcium isotope accumulation. Cells were incubated for 48 h in medium containing 0.5 uCi/mi of ^45CaCl2 at various time points after seeding. Subsequently, the monolayers were washed twice with PBS using 1 ml/wash. Cells were harvested and digested in 0.1 N NaOH and aliquots were counted by liquid scintillation counting using a Beckman 5500 scintillation counter.
Calcified nodules in actively mineralizing cultures were visualized by staining cell monolayers with Alizarin-Red-S (Sigma Chemical Co, St Louis, Mo.). Cell cultures were washed twice with PBS, fixed for 10 min in 50 percent ethanol, rehydrated with 1 ml of distilled water for 5 min and then stained for 1-3 min with 200 uL of 1 percent Alizarin Red S (aqueous). The monolayers were then washed extensively and very carefully using 1 ml H2O per wash. Calcified nodules which appeared a bright red color were identified by light microscopy.
To monitor the differentiation of cells to the mature osteoblast type, alkaline phosphatase activity was determined in cell lysates using the colorimetric assay. Cells were washed twice with PBS using 1 ml/wash. Subsequently, the monolayers were transferred to ice and cells lysed in 0.2 ml of 0.1% TX-100. […] The reactions were stopped with the addition of 100 uL of ice cold 0.25 N NaOH to each reaction and absorbance was read at 410 nm. […] Alkaline phosphatase activity was calculated as umol of substrate (p-nitrophenol) released/mg protein/min.
Osteocalcin levels in the supernatants were determined at various time points during the assay using a mouse RIA as per the manufacturers instructions. […]

Take Gly-Arc-Gly-Asp-Ser-OH (GRGDS-OH): the “stimulates release of osteocalcin (in words)” value in experiment [1] is recorded as “stimulate the release of osteocalcin”.

In the case of `CN1Cc2cc(C(=O)NCc3nc4ccccc4[nH]3)ccc2NC(CC(=O)O)C1=O` (racemic) [7-[(((2-benzimidazolyl)methyl)amino)carbonyl]-2,3,4,5-tetrahydro4-methyl-3-oxo-1H-1,4-benzodiazepine-2-acetic acid], the “stimulates release of osteocalcin (in words)” value in experiment [1] is “osteocalcin-releasing”.

As to `C=C1CC[C@H](O)C/C1=C/C=C1\CCC[C@]2(C)[C@@H]([C@H](C)CCCC(C)C)CC[C@@H]12` [Vitamin D3], the “increase over the basal level of osteocalcin” value in experiment [1] is “two to three fold increase”.

In the case of Benzyl-(N-methyl)Arg-Gly-Asp-NHPh, in experiment [1], the “stimulates release of osteocalcin (in words)” value is on record as “stimulate the release of osteocalcin”.

In the case of “Benzyl-(N-methyl)Arg-Gly-Asp-NH-(2 or 4 chloro)Ph”, the “stimulates release of osteocalcin (in words)” value in experiment [1] is reported as “stimulate the release of osteocalcin”.

Turning to `CC(C)[C@@H]1NC(=O)[C@@H](Cc2ccccc2)NC(=O)[C@H](CC(=O)O)NC(=O)CNC(=O)[C@H](CCCNC(=N)N)NC1=O` [cyclo[Arg-Gly-Asp-D-Phe-Val]], in experiment [1], the “stimulates release of osteocalcin (in words)” value is “stimulate the release of osteocalcin” and the “increase over the basal level of osteocalcin” value is “two to three fold increase”. Besides, the concentration for a half-maximal effect (EC50) in experiment [1] (48 h) worked out at 740 nM. Besides, the “stimulates release of osteocalcin (in words)” value in experiment [1] (listed as cyclo(Arg-Gly-Asp-D-Phe-Val)) is listed as “osteocalcin-releasing”. In addition, in experiment [2], the 45Ca uptake entry is given as “increased calcium uptake”, the alkaline phosphatase activity result is on record as “enhanced alkaline phosphatase activity” and the “calcification nodules upon Alizarin-Red staining” value is “showed calcification nodules upon Alzirin staining”.
